According to patent US11779602B2, “Methods of use for CAR T cells” (ENDOCYTE, INC., priority 2018, dated 2023):

How the values were obtained:
MDA-MB-231 tumors [1] = test: Dietary folate effect on antitumor activity and CRS, MDA-MB-231 tumors in NSG mice; format: in vivo
Protocol: To study the effect of high dietary folate (FIGS. 63A-K), two sets of NSG mice were placed on either a FA-replete diet (4 mg/kg, Envigo, Indianapolis, Ind.) or a FA-deficient diet (TestDiet, St. Louis, Mo.) upon arrival. On day 0, both sets of the mice received ˜10 million of the same “clinical facsimile” CAR-T cells followed by no EC17 or EC17 SIW at 500 nmol/kg starting on day 3. On the first day of EC17 administration, MDA-MB-231 tumors size averaged around ˜549±184 mm^3 (280-918 mm^3) in FA-replete mice, and ˜559±165 mm^3 (356-961 mm^3) in FA-deficient mice.
Previously, it was shown that administration of FA or a FA ligand helped reduce the severity of CRS in MDA-MB-231 tumor-bearing mice. To test the long-term effect of dietary folate, mice were maintained on defined diets for ˜73 days and used when their tumors reached ˜549±184 mm^3 (280-918 mm^3) in FA-replete mice, and ˜559±165 mm^3 (356-961 mm^3) in FA-deficient mice (FIGS. 63A-K).
Since we started MDA-MB-231 tumors at larger sizes than previous studies, tumor regression due to alloreactivity at this 10-million “clinical facsimile” CAR-T cell dose was not apparent (FIGS. 63A and 63C).
Using anti-human EGFR (clone Hu1) to identify MDA-MB-231 cancer cells within mouse tumor masses after an enzymatic digestion, we analyzed FRα protein expression (clone LK26) in three tumors recovered from mice on FA-replete diet that experienced a relapse despite continuing EC17 treatment. By flow cytometric detection, EGFR+ cancer cells isolated from the smallest tumor (21 mg) expressed FRα, while EGFR+ cancer cells isolated from the two larger tumors (90 mg and 363 mg) had completely lost their FRα expression (FIGS. 63I-K). Using the quantitative radioligand binding assay with ^3H-FA, the loss of functional FR levels on tissue homogenates obtained from these tumors was confirmed (˜2.1 pmol/mg binding potential versus ˜103 pmol/mg in tumors from untreated animals). Therefore, FA-deficiency may lead to enhanced activity and CRS toxicity; while non-physiological FA intake prevents CRS and continuous consumption may lead to reduced activity.

MDA-MB-231 tumors [2] = test: CAR-T/EC17 therapy, fixed dose and dose de-escalation, in mice bearing MDA-MB-231 tumors; format: in vivo; details: 4M5.3-CAR-T 30 million cells, EC17 de-escalation
Source text: The effect of EC17 dose de-escalation was investigated on the anti-tumor activity and the toxicity (body weight changes) of CAR-T therapy. Two different anti-fluorescein scFv were used for the CAR constructions (FIG. 1). The first construct of CAR contains the following domains: antiFL(FITC-E2)scFv-IgG4 hinge (CH2 (L235D, N297Q)-CH3)-CD28 TM-4-1BB-CD3z-T2A-EGFRt. The second construct of CAR contains the following domains: antiFL(FITC-4M5.3)scFv-IgG4 hinge (CH2 (L235D, N297Q)-CH3)-CD28 TM-4-1BB-CD3z-T2A-EGFRt. The nucleic acid sequence and amino acid sequence of the CAR of each construct are shown as SEQ ID NOS:1 to 4. Human T cells were isolated, activated and transduced with a lentiviral vector carrying the appropriate CAR gene. CD4+ T cells with the CAR-modification and CD8+ T cells with the CAR-modification were isolated and cultured separately in vitro for about 7 days. CD4+ CAR-T cells and CD8+ CAR-T cells were mixed at a 1:1 ratio before i.v. administration for animal studies.
The second construct 4M5.3-CAR (antiFL(FITC-4M5.3) scFv-IgG4 hinge (CH2 (L235D, N297Q)-CH3)-CD28 TM-4-1BB-CD3z-T2A-EGFRt) was also evaluated. Mice bearing MDA-MB-231 tumors (150-250 mm^3) were used for in vivo studies to evaluate 4M5.3-CAR-T cells. […]

[3] = tested on: FR+ cell lines (MDA-MB-231, KB, HOS-FRα, THP1-FRβ, OV90); test: Co-culture at 10 nM EC17, varying E/T ratios: specific lysis and Th1 cytokines; format: cell-based, human; details: 10 nM EC17, ≥1:1 E/T ratios, 48 hours
Protocol: After 24 hours of co-culture, supernatants were harvested to determine tumor cell killing. To study the kinetics of T cell activation and FR correlation in vitro (FIGS. 60A-L), co-cultures were carried out in FR+/− cell lines at varying E/T ratios (1:27, 1:9, 1:3, 1:1, 3:1) in the continuous presence of 10 nM EC17. The kinetics of tumor cell killing were quantified after 16 and 48 hours of co-culture. Meanwhile, a portion of the supernatants was taken after 44 hours of co-culture for measurement of IFNγ, IL-2 and TNFα. Using Promega's CytoTox 96® LDH assay kit, target cell killing was quantified and expressed as specific lysis (%) which was normalized to basal levels in the absence of EC17 at defined E/T ratios. The LEGENDplex™ human Th1 cytokine panel (BioLegend, San Diego, Calif.) was used to determine CAR-T cell derived cytokines.
Specific lysis (%) was quantified after 16 and 48 hours of co-culture, and Th1 cytokines (IFNγ, IL-2, TNFα) in culture media were measured after 44 hours of co-culture. […] It generally took a longer time (48 hours) and a higher E/T ratio (≥1:1) to see significant activity in the lowest FR-expressing OV90 cells (FIGS. 60A-G). The high FR-expressing KB cells responded […] to cause significant cell death (FIG. 60F). […]

With NC1=NC2N=CC(CNc3ccc(C(=O)N[C@@H](CCC(=O)NCCNC(=S)Nc4ccc(-c5c6ccc(=O)cc-6oc6cc(O)ccc56)c(C(=O)O)c4)C(=O)O)cc3)=NC2C(=O)N1 (stereo partly drawn) [EC17, FA-(γ)-ethylenediamine-FITC] the “CD3ε+EGFRt+ CAR-T cells in blood” value (MDA-MB-231 tumors [1]; FA-deficient diet, day 52) was 1.6-20.4×10^4 per 100 μL blood, the CRS grade (MDA-MB-231 tumors [1]; FA-deficient diet, subsequent EC17 doses) was 2-3 grade and the “CD3ε+EGFRt+ CAR-T cells in blood” value (MDA-MB-231 tumors [1]; FA-replete diet, day 59) was 0.027-4.3×10^3 per 100 μL blood. The CRS (MDA-MB-231 tumors [1]; FA-replete diet, ~10 million CAR-T cells, EC17 500 nmol/kg weekly) was “did not show symptoms of CRS”, the “EC17 dose dependence of anti-tumor activity and body weight loss” value (MDA-MB-231 tumors [2]) was “dose dependent anti-tumor activity and body weight loss” and the specific lysis response [3] was “all FR+ cancer cells responded after 48 hours of co-culture”.
